≈ marks a conversion by molar mass, not a printed value.
Experiments:
Format in all cases: functional
Helicobacter pylori [1] = assay: Antibacterial activity against Helicobacter pylori strain 1 assessed as diameter of growth inhibition zone at 32 ug/disk after 3-5 days by filter paper disk diffusion method; conditions: read-out: DIZ
Helicobacter pylori [2] = assay: Antibacterial activity against Helicobacter pylori strain 1 assessed as diameter of growth inhibition zone at 16 ug/disk after 3-5 days by filter paper disk diffusion method; conditions: read-out: DIZ
Helicobacter pylori [3] = assay: Antibacterial activity against Helicobacter pylori strain 1 assessed as diameter of growth inhibition zone at 8 ug/disk after 3-5 days by filter paper disk diffusion method; conditions: read-out: DIZ
Pseudomonas aeruginosa = assay: microbe, parasite or virus in culture; conditions: ATCC 9027, 24 h
Description: Antibacterial activity against Pseudomonas aeruginosa ATCC 9027 assessed as growth inhibition after 24 hr by microdilution method

Klebsiella pneumoniae = assay: microbe, parasite or virus in culture; conditions: ATCC 10031, 24 h
Description: Antibacterial activity against Klebsiella pneumoniae ATCC 10031 assessed as growth inhibition after 24 hr by microdilution method

Escherichia coli = assay: microbe, parasite or virus in culture; conditions: ATCC 8739, 24 h
Description: Antibacterial activity against Escherichia coli ATCC 8739 assessed as growth inhibition after 24 hr by microdilution method

Bacillus subtilis = assay: microbe, parasite or virus in culture; conditions: ATCC 6633, 24 h
Description: Antibacterial activity against Bacillus subtilis ATCC 6633 assessed as growth inhibition after 24 hr by microdilution method

[4] = system: Staphylococcus epidermidis; assay: microbe, parasite or virus in culture; conditions: ATCC 12228, 24 h
Description: Antibacterial activity against Staphylococcus epidermidis ATCC 12228 assessed as growth inhibition after 24 hr by microdilution method

Staphylococcus aureus = assay: microbe, parasite or virus in culture; conditions: ATCC 6538p, 24 h
Description: Antibacterial activity against Staphylococcus aureus ATCC 6538p assessed as growth inhibition after 24 hr by microdilution method

Helicobacter pylori [5] = assay: Antibacterial activity against Helicobacter pylori strain 3 assessed as diameter of growth inhibition zone at 64 ug/disk after 3-5 days by filter paper disk diffusion method; conditions: read-out: DIZ
Helicobacter pylori [6] = assay: Antibacterial activity against Helicobacter pylori strain 3 assessed as diameter of growth inhibition zone at 32 ug/disk after 3-5 days by filter paper disk diffusion method; conditions: read-out: DIZ
Helicobacter pylori [7] = assay: Antibacterial activity against Helicobacter pylori strain 3 assessed as diameter of growth inhibition zone at 16 ug/disk after 3-5 days by filter paper disk diffusion method; conditions: read-out: DIZ
Helicobacter pylori [8] = assay: Antibacterial activity against Helicobacter pylori strain 3 assessed as diameter of growth inhibition zone at 8 ug/disk after 3-5 days by filter paper disk diffusion method; conditions: read-out: DIZ
Helicobacter pylori [9] = assay: Antibacterial activity against Helicobacter pylori strain 2 assessed as diameter of growth inhibition zone at 64 ug/disk after 3-5 days by filter paper disk diffusion method; conditions: read-out: DIZ
Helicobacter pylori [10] = assay: Antibacterial activity against Helicobacter pylori strain 2 assessed as diameter of growth inhibition zone at 32 ug/disk after 3-5 days by filter paper disk diffusion method; conditions: read-out: DIZ
Helicobacter pylori [11] = assay: Antibacterial activity against Helicobacter pylori strain 2 assessed as diameter of growth inhibition zone at 16 ug/disk after 3-5 days by filter paper disk diffusion method; conditions: read-out: DIZ
Helicobacter pylori [12] = assay: Antibacterial activity against Helicobacter pylori strain 2 assessed as diameter of growth inhibition zone at 8 ug/disk after 3-5 days by filter paper disk diffusion method; conditions: read-out: DIZ
Helicobacter pylori [13] = assay: Antibacterial activity against Helicobacter pylori strain 1 assessed as diameter of growth inhibition zone at 64 ug/disk after 3-5 days by filter paper disk diffusion method; conditions: read-out: DIZ

SMILES | MIC (Pseudomonas aeruginosa) [µg/mL] | MIC (Klebsiella pneumoniae) [µg/mL] | MIC (Escherichia coli) [µg/mL] | MIC (Bacillus subtilis) [µg/mL] | MIC [4] [µg/mL] | MIC (Staphylococcus aureus) [µg/mL] | zone of inhibition at 32 µg/disc (Helicobacter pylori [1]) [mm] | zone of inhibition at 16 µg/disc (Helicobacter pylori [2]) [mm] | zone of inhibition at 8 µg/disc (Helicobacter pylori [3]) [mm] | zone of inhibition at 64 µg/disc (Helicobacter pylori [5]) [mm] | zone of inhibition at 32 µg/disc (Helicobacter pylori [6]) [mm] | zone of inhibition at 16 µg/disc (Helicobacter pylori [7]) [mm] | zone of inhibition at 8 µg/disc (Helicobacter pylori [8]) [mm] | zone of inhibition at 64 µg/disc (Helicobacter pylori [9]) [mm] | zone of inhibition at 32 µg/disc (Helicobacter pylori [10]) [mm] | zone of inhibition at 16 µg/disc (Helicobacter pylori [11]) [mm] | zone of inhibition at 8 µg/disc (Helicobacter pylori [12]) [mm] | zone of inhibition at 64 µg/disc (Helicobacter pylori [13]) [mm]
COc1ccc(-c2csc(/N=C3\NC(=O)/C(=C/C4C(=O)Nc5ccccc54)S3)n2)cc1 (stereo unspecified) | > 100 | > 100 | 100 (≈ 223 µM) | > 100 | 100 (≈ 223 µM) | > 100 | 6 | 6 | 6 | 6 | 6 | 6 | 6 | 6 | 6 | 6 | 6 | 6
Cn1c(/C=C2\S/C(=N/c3nccs3)NC2=O)ccc1[N+](=O)[O-] | > 100 | 0.39 (≈ 1.16 µM) | 12.5 (≈ 37.3 µM) | 0.19 (≈ 0.567 µM) | 0.19 (≈ 0.567 µM) | 0.78 (≈ 2.33 µM) | > 50 | > 50 | > 50 | > 50 | > 50 | > 50 | > 50 | > 50 | > 50 | > 50 | > 50 | > 50
O=C1N/C(=N\c2nccs2)S/C1=C\c1ccc([N+](=O)[O-])s1 | > 100 | > 100 | > 100 | 0.78 (≈ 2.3 µM) | 0.39 (≈ 1.15 µM) | 1.56 (≈ 4.61 µM) | 42 | 40 | 36 | 45 | 40 | 35 | 33 | 34 | 30 | 28 | 25 | 45
Cn1c(/C=C2\S/C(=N/c3nc(-c4ccccc4)cs3)NC2=O)ccc1[N+](=O)[O-] | > 100 | > 100 | > 100 | 50 (≈ 122 µM) | 50 (≈ 122 µM) | > 100 | 6 | 6 | 6 | 6 | 6 | 6 | 6 | 6 | 6 | 6 | 6 | 6
COc1ccc(-c2csc(/N=C3\NC(=O)/C(=C/c4ccc([N+](=O)[O-])n4C)S3)n2)cc1 | > 100 | 100 (≈ 227 µM) | > 100 | 50 (≈ 113 µM) | 25 (≈ 56.6 µM) | > 100 | 6 | 6 | 6 | 6 | 6 | 6 | 6 | 6 | 6 | 6 | 6 | 6
O=C1N/C(=N\c2nc(-c3ccccc3)cs2)S/C1=C\c1ccc([N+](=O)[O-])s1 | > 100 | > 100 | > 100 | > 100 | > 100 | > 100 | – | – | – | – | – | – | – | – | – | – | – | –
Cc1ncc([N+](=O)[O-])n1CCO [METRONIDAZOLE] | – | – | – | – | – | – | – | 14 | – | – | – | 14 | – | – | – | 14 | – | –
COc1ccc(-c2csc(/N=C3\NC(=O)/C(=C/c4ccc([N+](=O)[O-])s4)S3)n2)cc1 | > 100 | > 100 | 100 (≈ 225 µM) | > 100 | > 100 | > 100 | 27 | 25 | 22 | 35 | 30 | 25 | 22 | 39 | 35 | 32 | 30 | 30
O=C(O)c1cn(C2CC2)c2cc(N3CCNCC3)c(F)cc2c1=O [CIPROFLOXACIN] | 0.39 (≈ 1.18 µM) | 0.006 (≈ 0.0181 µM) | – | 0.19 (≈ 0.573 µM) | 0.097 (≈ 0.293 µM) | 0.19 (≈ 0.573 µM) | – | – | – | – | – | – | – | – | – | – | – | –
Cn1c(/C=C2\S/C(=N/c3nc4ccccc4s3)NC2=O)ccc1[N+](=O)[O-] | > 100 | 25 (≈ 64.9 µM) | > 100 | 12.5 (≈ 32.4 µM) | 25 (≈ 64.9 µM) | 25 (≈ 64.9 µM) | 29 | 26 | 23 | 30 | 26 | 24 | 22 | 35 | 33 | 29 | 27 | 32

The next lines start with results.

MIC (Pseudomonas aeruginosa) [µg/mL] | MIC (Klebsiella pneumoniae) [µg/mL] | MIC (Escherichia coli) [µg/mL] | MIC (Bacillus subtilis) [µg/mL] | MIC [4] [µg/mL] | MIC (Staphylococcus aureus) [µg/mL] | SMILES | zone of inhibition at 32 µg/disc (Helicobacter pylori [1]) [mm] | zone of inhibition at 16 µg/disc (Helicobacter pylori [2]) [mm] | zone of inhibition at 8 µg/disc (Helicobacter pylori [3]) [mm] | zone of inhibition at 64 µg/disc (Helicobacter pylori [5]) [mm] | zone of inhibition at 32 µg/disc (Helicobacter pylori [6]) [mm] | zone of inhibition at 16 µg/disc (Helicobacter pylori [7]) [mm] | zone of inhibition at 8 µg/disc (Helicobacter pylori [8]) [mm] | zone of inhibition at 64 µg/disc (Helicobacter pylori [9]) [mm] | zone of inhibition at 32 µg/disc (Helicobacter pylori [10]) [mm] | zone of inhibition at 16 µg/disc (Helicobacter pylori [11]) [mm] | zone of inhibition at 8 µg/disc (Helicobacter pylori [12]) [mm] | zone of inhibition at 64 µg/disc (Helicobacter pylori [13]) [mm]
100 (≈ 233 µM) | > 100 | > 100 | 12.5 (≈ 29.2 µM) | 12.5 (≈ 29.2 µM) | 25 (≈ 58.3 µM) | COc1ccc(-c2csc(/N=C3\NC(=O)/C(=C/c4ccc([N+](=O)[O-])o4)S3)n2)cc1 | 12 | 10 | ≤ 6 | 26 | 19 | 16 | 12 | 20 | 19 | 17 | 15 | 14
0.39 (≈ 1.21 µM) | 1.56 (≈ 4.84 µM) | 1.56 (≈ 4.84 µM) | 0.19 (≈ 0.589 µM) | 0.006 (≈ 0.0186 µM) | 0.97 (≈ 3.01 µM) | O=C1N/C(=N\c2nccs2)S/C1=C\c1ccc([N+](=O)[O-])o1 | > 50 | > 50 | > 50 | > 50 | > 50 | > 50 | > 50 | > 50 | > 50 | > 50 | > 50 | > 50
> 100 | 6.25 (≈ 16.8 µM) | 3.12 (≈ 8.39 µM) | 0.39 (≈ 1.05 µM) | 0.39 (≈ 1.05 µM) | 0.97 (≈ 2.6 µM) | O=C1N/C(=N\c2nc3ccccc3s2)S/C1=C\c1ccc([N+](=O)[O-])o1 | 28 | 24 | 20 | 34 | 30 | 28 | 25 | 30 | 26 | 24 | 22 | 33
> 100 | > 100 | > 100 | 0.78 (≈ 2.01 µM) | 0.19 (≈ 0.489 µM) | 0.39 (≈ 1 µM) | O=C1N/C(=N\c2nc3ccccc3s2)S/C1=C\c1ccc([N+](=O)[O-])s1 | – | – | – | – | – | – | – | – | – | – | – | –
> 100 | > 100 | > 100 | 50 (≈ 125 µM) | 25 (≈ 62.7 µM) | 50 (≈ 125 µM) | O=C1N/C(=N\c2nc(-c3ccccc3)cs2)S/C1=C\c1ccc([N+](=O)[O-])o1 | 15 | 13 | 10 | 20 | 18 | 15 | 13 | 23 | 18 | 12 | 10 | 20
> 100 | > 100 | > 100 | 6.25 (≈ 18.3 µM) | 12.5 (≈ 36.5 µM) | 25 (≈ 73 µM) | O=C1N/C(=N\c2nccs2)S/C1=C\C1C(=O)Nc2ccccc21 (stereo unspecified) | 13 | 12 | 10 | 15 | 14 | 10 | 10 | 20 | 18 | 14 | 12 | 15

Reference: ChEMBL document CHEMBL3045421, “5-Nitro-heteroarylidene analogs of 2-thiazolylimino-4-thiazolidinones as a novel series of antibacterial agents” (2013)
